Data as given in patent US20150209294A1, “PHARMACEUTICAL COMPOSITION AND PROCESS” (Hoffmann-La Roche Inc., priority 2006, published 2015).

What was measured:
[1] = oral bioavailability in rats; conditions: rat, in vivo
[2] = oral bioavailability in dogs; conditions: dog, in vivo
permeability of R 411 = type: in vitro ADME; conditions: limited permeability
[3] = oral bioavailability in monkeys; conditions: monkey, in vivo
[4] = pH-dependent chemical stability (hydrolysis of ester linkage); type: physicochemical; conditions: at pH>6

- bioavailability [1]: 20%
- bioavailability [2]: 20%
- permeability (permeability of R 411): 58×10^−6 cm^2/sec
- bioavailability [3]: 6%
- stability to hydrolysis [4]: prone to alkaline hydrolysis
Structure (SMILES): CCN(CC)CCOC(=O)[C@H](Cc1ccc(NC(=O)c2c(Cl)cccc2Cl)cc1)NC(=O)c1c(C)cccc1Cl.Cl [R 411, N-(2-chloro-6-methylbenzoyl)-4-[(2,6-dichlorobenzoyl)amino]-L-phenylalanine-2-(diethylamino)ethyl ester hydrochloride]
